Earlier results, collected in patent publication US20110256058A1, “Novel Peptides and Uses Thereof” (UNIVERSITY OF SOUTHERN CALIFORNIA, priority 2007, published 2011).

System: α2 aI domain
Conditions: literature; for conformational effect on α2 receptor: open conformation of α2 receptor

Row | Substance | conformational effect on α2 receptor | inhibition of aI domain / α2β1 binding to collagen and laminin | binding to aI domain
1 | CARKKHDC [RKKH peptide of structural studies in the literature] | induce conformational change |  | 
2 | RSECD |  | fails to inhibit collagen binding | 
3 | CTRKKHDNAQC |  | prevents its binding to collagen (type I, IV) and laminin (type 1) | binds to aI domain
4 | CTRKKHDC [RKKH peptide of structural studies in the literature] | induce conformational change |  | 
